These results are taken from article PMC6896446, “Design, synthesis and molecular modelling studies of some pyrazole derivatives as carbonic anhydrase inhibitors” (Journal of Enzyme Inhibition and Medicinal Chemistry, 2019).

Where two headings read alike, the source gives them in different places.

Series [1] deals with T1, hCA II (Homo sapiens, UniProt P00918).
T1 construct: The hCA I and II isoenzymes used here were purified from human blood as previously described; from tissue; host or cells: human blood
Put plainly: hCA II inhibition, esterase activity method (4-nitrophenylacetate). It counts as biochemical.
Description: Different inhibitor concentrations were used and all compounds were tested in triplicate at each concentration used.
Human CA I and II isozymes were purified by one step chromatography technique and the activity of the effluents was determined by the hydratase method, using CO2 as substrate and further kinetic studies were performed using the esterase activity method, using 4-nitrophenyl acetate (NPA) as substrate.[21]

Series [2] addresses T2, hCA I (Homo sapiens, UniProt P00915).
T2 construct: The hCA I and II isoenzymes used here were purified from human blood as previously described; from tissue; host or cells: human blood
Put plainly: hCA I inhibition, esterase activity method (4-nitrophenylacetate). It counts as biochemical. Particulars: for IC50: against hCA I.
Description: The enzymatic reaction contained 1.4 ml 0.05 M Tris-SO4 buffer (pH 7.4), 1 ml 3 mM 4-nitrophenylacetate, 0.5 ml H2O and 0.1 ml enzyme solution, in a total volume of 3.0 ml.[24] […] Different inhibitor concentrations were used and all compounds were tested in triplicate at each concentration used. […] An Activity% – [Inhibitor] graph was drawn for each inhibitor.[25] […] The catalytic activity of these enzymes was calculated from Lineweaver-Burk plots, as reported previously, and represent the mean from at least three different determinations.
The inhibitory effects of all the synthesised compounds were investigated for the first time against hCA isozymes: hCA I and hCA II. Human CA I and II isozymes were purified by one step chromatography technique and the activity of the effluents was determined by the hydratase method, using CO2 as substrate and further kinetic studies were performed using the esterase activity method, using 4-nitrophenyl acetate (NPA) as substrate.[21]

[3] abbreviates: esterase method, 4-nitrophenylacetate, pH 7.4, 25 °C, mean from at least three determinations, read-out: Ki hCA I.
The mark [4] stands for this setting: esterase method, 4-nitrophenylacetate, pH 7.4, 25 °C, mean from at least three determinations, read-out: Ki hCA II.

T2 sequence (P00915 whole entry): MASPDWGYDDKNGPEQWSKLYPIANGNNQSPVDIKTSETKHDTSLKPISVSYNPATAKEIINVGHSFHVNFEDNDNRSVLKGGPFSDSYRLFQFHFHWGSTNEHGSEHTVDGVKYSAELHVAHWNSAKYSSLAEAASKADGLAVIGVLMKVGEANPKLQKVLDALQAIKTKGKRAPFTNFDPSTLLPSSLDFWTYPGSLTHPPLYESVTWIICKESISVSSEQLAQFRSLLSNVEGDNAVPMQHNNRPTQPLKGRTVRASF

`COc1cc(/C=C/C(=O)c2ccc(N)cc2)cc(OC)c1OC` [Compound 1, (E)-1-(4-aminophenyl)-3-(3,4,5-trimethoxyphenyl)prop-2-en-1-one]: in series [1], the affinity, expressed as Ki, was 33.8 nM.

For the compound `COc1cc(/C=C/C(=O)c2ccc(Br)cc2)cc(OC)c1OC` [Compound 2, (E)-1-(4-bromophenyl)-3-(3,4,5-trimethoxyphenyl)prop-2-en-1-one], the values for the Ki in series [2] (setting [3]) and in series [1] (setting [4]) were 8.03 nM and 17.1 nM, respectively.

In the case of `COc1cc(/C=C/C(=O)c2ccc(C)cc2)cc(OC)c1OC` [Compound 3, (E)-1-p-tolyl-3-(3,4,5-trimethoxyphenyl)prop-2-en-1-one], the Ki in series [2] (setting [3]) worked out at 16.9 nM; in series [1] (setting [4]), 67.4 nM.

For the compound `COc1ccc(/C=C/C(=O)c2ccc(N)cc2)cc1OC` [Compound 4, (E)-1-(4-aminophenyl)-3-(3,4-dimethoxyphenyl)prop-2-en-1-one], the Ki in series [2] (setting [3]) is 9.71 nM; in series [1] (setting [4]), 21.5 nM.

For the compound `CN(C)c1ccc(/C=C/C(=O)c2ccc(O)cc2)cc1` [Compound 5, (E)-3-(4-(dimethylamino)phenyl)-1-(4-hydroxyphenyl)prop-2-en-1-one], the Ki in series [2] was 8.28 nM; in series [1], 11.8 nM.

In turn, `COc1cc(C2CC(c3ccc(N)cc3)=NN2C(N)=S)cc(OC)c1OC` (stereo not drawn) [Compound 6, 3-(4-Aminophenyl)-5-(3,4,5-trimethoxyphenyl)-4,5-dihydro-1H-pyrazole-1-carbothioamide] returned an IC50 in series [2] of 23.9 to 24.4 nM. Moreover, the Ki in series [2] (setting [3]) was found to be 12.2 nM.

As for `COc1cc(C2CC(c3ccc(Br)cc3)=NN2C(N)=S)cc(OC)c1OC` (stereo not drawn) [Compound 7, 3-(4-Bromophenyl)-5-(3,4,5-trimethoxyphenyl)-4,5-dihydro-1H-pyrazole-1-carbothioamide], in series [2] (setting [3]), the Ki was 12.6 nM.

As for `COc1cc(C2CC(c3ccc(C)cc3)=NN2C(N)=S)cc(OC)c1OC` (stereo not drawn) [Compound 8, 3-p-Tolyl-5-(3,4,5-trimethoxyphenyl)-4,5-dihydro-1H-pyrazole-1-carbothioamide], the Ki in series [2] (setting [3]) came to 11 nM; in series [1] (setting [4]), 26.1 nM.

Take `COc1ccc(C2CC(c3ccc(N)cc3)=NN2C(N)=S)cc1OC` (stereo not drawn) [Compound 9, 3-(4-Aminophenyl)-5-(3,4-dimethoxyphenyl)-4,5-dihydro-1H-pyrazole-1-carbothioamide]: the Ki in series [2] came out at 5.13 nM; in series [1] (setting [4]), 20.4 nM.

As for `CN(C)c1ccc(C2CC(c3ccc(O)cc3)=NN2C(N)=S)cc1` (stereo not drawn) [Compound 10, 5-(4-(Dimethylamino)phenyl)-3-(4-hydroxyphenyl)-4,5-dihydro-1H-pyrazole-1-carbothioamide], the melting point is 180 to 182 °C. In addition, the IC50 in series [2] was 23.9 to 24.4 nM. For the same compound, in series [2] (setting [3]), the Ki was 11.9 nM. For the same compound, in series [2] (hCA I versus hCA II), the “selectivity ratio (SR) hCA I versus hCA II” value is given as 3.46. For the same compound, the Ki in series [1] (setting [4]) is 41.3 nM.

The Ki is a dissociation constant, usually derived from enzyme kinetics or from competition with a known ligand. What is called IC50 is the point on the concentration scale where inhibition reaches its midpoint. Lower therefore signals inhibition by little substance. What is called melting point is the temperature, or range, at which the solid turns liquid.
